Measurements: PubChem BioAssay (NCI)
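48-hour exposure; five concentrations; linearly interpolated endpoints. GI50: concentration for 50% inhibition of growth. TGI: total growth inhibition.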

Assays:
Assay in all cases: NCI tumour cell line growth inhibition, 48 h
NCI-H460 lung = system: NCI-H460 lung
HOP-92 NSCLC = system: HOP-92 NSCLC
LOX IMVI melanoma = system: LOX IMVI melanoma
A549 NSCLC = system: A549 NSCLC
MCF7 breast = system: MCF7 breast
786-0 renal = system: 786-0 renal
RXF 393 renal = system: RXF 393 renal
NCI/ADR-RES ovarian = system: NCI/ADR-RES ovarian
HCT-116 colon = system: HCT-116 colon
HCC-2998 colon = system: HCC-2998 colon
OVCAR-8 ovarian = system: OVCAR-8 ovarian
MDA-MB-231 breast = system: MDA-MB-231 breast
NCI-H23 lung = system: NCI-H23 lung
NCI-H226 lung = system: NCI-H226 lung
NCI-H522 lung = system: NCI-H522 lung
KM12 colon = system: KM12 colon
HT29 colon = system: HT29 colon
IGROV1 ovarian = system: IGROV1 ovarian
SF-295 CNS = system: SF-295 CNS
SK-OV-3 ovarian = system: SK-OV-3 ovarian
SW-620 colon = system: SW-620 colon
EKVX NSCLC = system: EKVX NSCLC
TK-10 renal = system: TK-10 renal
MOLT-4 leukemia = system: MOLT-4 leukemia
OVCAR-4 ovarian = system: OVCAR-4 ovarian
UACC-257 melanoma = system: UACC-257 melanoma
SN12C renal = system: SN12C renal
CAKI-1 renal = system: CAKI-1 renal
RPMI-8226 leukemia = system: RPMI-8226 leukemia
T-47D breast = system: T-47D breast
SF-268 CNS = system: SF-268 CNS
MDA-MB-435 = system: MDA-MB-435
UO-31 renal = system: UO-31 renal
HL-60(TB) leukemia = system: HL-60(TB) leukemia
MALME-3M melanoma = system: MALME-3M melanoma
ACHN renal = system: ACHN renal
COLO 205 colon = system: COLO 205 colon
OVCAR-3 ovarian = system: OVCAR-3 ovarian
A498 renal = system: A498 renal
M14 melanoma = system: M14 melanoma
UACC-62 melanoma = system: UACC-62 melanoma
HOP-62 NSCLC = system: HOP-62 NSCLC
HCT-15 colon = system: HCT-15 colon
OVCAR-5 ovarian = system: OVCAR-5 ovarian
U251 CNS = system: U251 CNS
PC-3 prostate = system: PC-3 prostate
SR leukemia = system: SR leukemia
SK-MEL-28 melanoma = system: SK-MEL-28 melanoma
K-562 leukemia = system: K-562 leukemia
DU-145 prostate = system: DU-145 prostate
CCRF-CEM leukemia = system: CCRF-CEM leukemia
SNB-19 CNS = system: SNB-19 CNS
SNB-75 CNS = system: SNB-75 CNS
SK-MEL-2 melanoma = system: SK-MEL-2 melanoma
SF-539 CNS = system: SF-539 CNS
BT-549 breast = system: BT-549 breast

How did the GI50 (NCI-H460 lung) turn out when `CCN(CC)CCCC(Cc1ccccc1)Nc1c2ccc(Cl)cc2nc2ccc(OC)cc12` (configuration not stated) was run?
The GI50 was 2.44 µM.

What about the TGI (NCI-H460 lung) of the same compound?
Its TGI is 5.92 µM.

What about the GI50 (HOP-92 NSCLC) of the same compound?
Its GI50 is 2.1 µM.

And the TGI (HOP-92 NSCLC)?
The TGI was 4.9 µM.

And the GI50 (LOX IMVI melanoma)?
Its GI50 is 1.6 µM.

And the TGI (LOX IMVI melanoma)?
Its TGI is 3.04 µM.

What about the GI50 (A549 NSCLC) of the same compound?
The GI50 was 2.79 µM.

And the TGI (A549 NSCLC)?
Its TGI is 7.29 µM.

And the GI50 (MCF7 breast)?
Its GI50 is 1.54 µM.

And the TGI (MCF7 breast)?
The TGI was 3.35 µM.

What about the GI50 (786-0 renal) of the same compound?
The GI50 was 1.4 µM.

And the TGI (786-0 renal)?
Its TGI is 3.34 µM.

And the GI50 (RXF 393 renal)?
Its GI50 is 1.63 µM.

And the TGI (RXF 393 renal)?
Its TGI is 3.35 µM.

What about the GI50 (NCI/ADR-RES ovarian) of the same compound?
The GI50 was 3.02 µM.

And the TGI (NCI/ADR-RES ovarian)?
The TGI was 10.4 µM.

What about the GI50 (HCT-116 colon) of the same compound?
The GI50 was 1.95 µM.

What about the TGI (HCT-116 colon) of the same compound?
The TGI was 10.7 µM.

What about the GI50 (HCC-2998 colon) of the same compound?
The GI50 was 1.61 µM.

What about the TGI (HCC-2998 colon) of the same compound?
The TGI was 3.3 µM.

What about the GI50 (OVCAR-8 ovarian) of the same compound?
Its GI50 is 2.34 µM.

What about the TGI (OVCAR-8 ovarian) of the same compound?
The TGI was 5.26 µM.

What about the GI50 (MDA-MB-231 breast) of the same compound?
Its GI50 is 1.65 µM.

What about the TGI (MDA-MB-231 breast) of the same compound?
Its TGI is 3.7 µM.

And the GI50 (NCI-H23 lung)?
The GI50 was 2.9 µM.

And the TGI (NCI-H23 lung)?
Its TGI is 8.47 µM.

What about the GI50 (NCI-H226 lung) of the same compound?
Its GI50 is 3.63 µM.

And the TGI (NCI-H226 lung)?
Its TGI is 14.5 µM.

What about the GI50 (NCI-H522 lung) of the same compound?
The GI50 was 1.81 µM.

And the TGI (NCI-H522 lung)?
Its TGI is 3.57 µM.

What about the GI50 (KM12 colon) of the same compound?
The GI50 was 2.79 µM.

And the TGI (KM12 colon)?
Its TGI is 10.3 µM.

What about the GI50 (HT29 colon) of the same compound?
The GI50 was 1.41 µM.

And the TGI (HT29 colon)?
Its TGI is 3.57 µM.

And the GI50 (IGROV1 ovarian)?
Its GI50 is 3.21 µM.

What about the TGI (IGROV1 ovarian) of the same compound?
Its TGI is 13.2 µM.

And the GI50 (SF-295 CNS)?
The GI50 was 1.86 µM.

What about the TGI (SF-295 CNS) of the same compound?
The TGI was 3.55 µM.

And the GI50 (SK-OV-3 ovarian)?
Its GI50 is 4.09 µM.

What about the TGI (SK-OV-3 ovarian) of the same compound?
The TGI was 13.9 µM.

What about the GI50 (SW-620 colon) of the same compound?
The GI50 was 1.77 µM.

And the TGI (SW-620 colon)?
Its TGI is 3.81 µM.

What about the GI50 (EKVX NSCLC) of the same compound?
The GI50 was 2.84 µM.

What about the TGI (EKVX NSCLC) of the same compound?
Its TGI is 10.5 µM.

What about the GI50 (TK-10 renal) of the same compound?
The GI50 was 1.68 µM.

What about the TGI (TK-10 renal) of the same compound?
The TGI was 3.31 µM.

And the GI50 (MOLT-4 leukemia)?
Its GI50 is 1.91 µM.

What about the TGI (MOLT-4 leukemia) of the same compound?
The TGI was 5.7 µM.

And the GI50 (OVCAR-4 ovarian)?
Its GI50 is 2.15 µM.

What about the TGI (OVCAR-4 ovarian) of the same compound?
The TGI was 6.2 µM.

And the GI50 (UACC-257 melanoma)?
The GI50 was 1.89 µM.

What about the TGI (UACC-257 melanoma) of the same compound?
The TGI was 3.44 µM.

And the GI50 (SN12C renal)?
The GI50 was 2.92 µM.

And the TGI (SN12C renal)?
Its TGI is 10.2 µM.

And the GI50 (CAKI-1 renal)?
The GI50 was 2.1 µM.

And the TGI (CAKI-1 renal)?
Its TGI is 5.9 µM.

And the GI50 (RPMI-8226 leukemia)?
The GI50 was 2.08 µM.

And the TGI (RPMI-8226 leukemia)?
The TGI was 5.26 µM.

And the GI50 (T-47D breast)?
Its GI50 is 1.97 µM.

What about the TGI (T-47D breast) of the same compound?
The TGI was 4.16 µM.

What about the GI50 (SF-268 CNS) of the same compound?
Its GI50 is 2.14 µM.

What about the TGI (SF-268 CNS) of the same compound?
Its TGI is 5.84 µM.

And the GI50 (MDA-MB-435)?
The GI50 was 1.5 µM.

And the TGI (MDA-MB-435)?
Its TGI is 2.89 µM.

And the GI50 (UO-31 renal)?
The GI50 was 1.35 µM.

What about the TGI (UO-31 renal) of the same compound?
Its TGI is 2.69 µM.

What about the GI50 (HL-60(TB) leukemia) of the same compound?
The GI50 was 2.11 µM.

What about the TGI (HL-60(TB) leukemia) of the same compound?
Its TGI is 4.45 µM.

What about the GI50 (MALME-3M melanoma) of the same compound?
Its GI50 is 2.02 µM.

And the TGI (MALME-3M melanoma)?
Its TGI is 3.6 µM.

What about the GI50 (ACHN renal) of the same compound?
Its GI50 is 2.01 µM.

What about the TGI (ACHN renal) of the same compound?
The TGI was 4.5 µM.

And the GI50 (COLO 205 colon)?
Its GI50 is 1.61 µM.

What about the TGI (COLO 205 colon) of the same compound?
The TGI was 3.37 µM.

What about the GI50 (OVCAR-3 ovarian) of the same compound?
Its GI50 is 2.88 µM.

What about the TGI (OVCAR-3 ovarian) of the same compound?
The TGI was 12.2 µM.

What about the GI50 (A498 renal) of the same compound?
Its GI50 is 1.88 µM.

And the TGI (A498 renal)?
The TGI was 5.09 µM.

What about the GI50 (M14 melanoma) of the same compound?
Its GI50 is 1.82 µM.

And the TGI (M14 melanoma)?
Its TGI is 3.51 µM.

What about the GI50 (UACC-62 melanoma) of the same compound?
The GI50 was 1.95 µM.

What about the TGI (UACC-62 melanoma) of the same compound?
The TGI was 3.64 µM.

And the GI50 (HOP-62 NSCLC)?
Its GI50 is 3.39 µM.

What about the TGI (HOP-62 NSCLC) of the same compound?
The TGI was 12.5 µM.

And the GI50 (HCT-15 colon)?
Its GI50 is 1.88 µM.

And the TGI (HCT-15 colon)?
The TGI was 4.72 µM.

What about the GI50 (OVCAR-5 ovarian) of the same compound?
Its GI50 is 2.67 µM.

What about the TGI (OVCAR-5 ovarian) of the same compound?
The TGI was 12.7 µM.

What about the GI50 (U251 CNS) of the same compound?
Its GI50 is 1.56 µM.

What about the TGI (U251 CNS) of the same compound?
Its TGI is 3.11 µM.

And the GI50 (PC-3 prostate)?
The GI50 was 5.22 µM.

What about the TGI (PC-3 prostate) of the same compound?
Its TGI is 19.1 µM.

And the GI50 (SR leukemia)?
The GI50 was 1.43 µM.

What about the TGI (SR leukemia) of the same compound?
The TGI was 4.25 µM.

What about the GI50 (SK-MEL-28 melanoma) of the same compound?
Its GI50 is 1.84 µM.

And the TGI (SK-MEL-28 melanoma)?
Its TGI is 3.59 µM.

And the GI50 (K-562 leukemia)?
The GI50 was 1.07 µM.

What about the TGI (K-562 leukemia) of the same compound?
The TGI was 2.89 µM.

What about the GI50 (DU-145 prostate) of the same compound?
The GI50 was 5 µM.

And the TGI (DU-145 prostate)?
Its TGI is 18.3 µM.

And the GI50 (CCRF-CEM leukemia)?
The GI50 was 2 µM.

What about the TGI (CCRF-CEM leukemia) of the same compound?
The TGI was 6.51 µM.

And the GI50 (SNB-19 CNS)?
Its GI50 is 2.56 µM.

And the TGI (SNB-19 CNS)?
Its TGI is 7.17 µM.

And the GI50 (SNB-75 CNS)?
Its GI50 is 1.62 µM.

And the TGI (SNB-75 CNS)?
Its TGI is 3.65 µM.

And the GI50 (SK-MEL-2 melanoma)?
The GI50 was 1.79 µM.

What about the TGI (SK-MEL-2 melanoma) of the same compound?
The TGI was 3.46 µM.

What about the GI50 (SF-539 CNS) of the same compound?
The GI50 was 1.7 µM.

What about the TGI (SF-539 CNS) of the same compound?
Its TGI is 3.33 µM.

And the GI50 (BT-549 breast)?
Its GI50 is 2.2 µM.

And the TGI (BT-549 breast)?
The TGI was 5.17 µM.
